Among the data in BindingDB's records for doi:10.1016/j.bmcl.2008.07.045 (Korea Research Institute of Bioscience and Biotechnology, 2008) are IC50 values, retold here.

The structures appear in SMILES notation.

Chain of Intercellular adhesion molecule 1 (P05362 whole entry): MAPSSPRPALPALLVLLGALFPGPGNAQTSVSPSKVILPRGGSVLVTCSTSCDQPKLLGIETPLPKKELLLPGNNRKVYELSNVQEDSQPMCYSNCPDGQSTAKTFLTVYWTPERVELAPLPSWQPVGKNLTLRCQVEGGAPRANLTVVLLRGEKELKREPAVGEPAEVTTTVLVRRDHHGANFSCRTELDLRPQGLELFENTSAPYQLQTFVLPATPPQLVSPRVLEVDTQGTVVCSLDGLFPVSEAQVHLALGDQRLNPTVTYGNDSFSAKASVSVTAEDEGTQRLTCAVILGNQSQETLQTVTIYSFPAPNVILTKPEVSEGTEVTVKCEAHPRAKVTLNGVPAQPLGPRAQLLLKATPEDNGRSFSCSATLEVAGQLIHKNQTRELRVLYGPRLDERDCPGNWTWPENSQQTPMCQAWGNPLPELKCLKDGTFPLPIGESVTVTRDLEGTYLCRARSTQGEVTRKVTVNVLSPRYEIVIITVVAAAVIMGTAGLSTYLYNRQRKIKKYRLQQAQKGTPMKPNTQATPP

The first experiment addresses Intercellular adhesion molecule 1 (Homo sapiens, UniProt P05362). Kind of experiment: Inhibition of sICAM1/LFA1 interaction-mediated human THP1 cell adhesion after 1 hr by ELISA. A general note: In an ELISA, binding on a coated surface is turned into a signal by an enzyme label.
In turn, `O=C(/C=C/C=C\CC/C=C/c1ccc2c(c1)OCO2)N1CCCCC1` showed an IC50 of 32.4 µM.
Same read-out and setting: the value for `CCCCC/C=C/C=C/C(=O)NCC(C)C` [CHEBI:69686] was 62.6 µM; that for `O=C(CCCCCC/C=C/c1ccc2c(c1)OCO2)N1CCCCC1` [PIPERROLEIN B] was 37.8 µM.

Biological target in a further experiment: not listed separately
As to the kind of experiment: Inhibition of sICAM1/LFA1 interaction-mediated human THP1 cell adhesion after 1 hr by ELISA.
As for `O=C(/C=C/C=C/CC/C=C/c1ccc2c(c1)OCO2)N1CCCCC1` [Dehydropipernoline], the IC50 was 17.6 µM.
Same read-out and setting: the value for `CC(C)CNC(=O)/C=C/C=C/CCCCCC/C=C/c1ccc2c(c1)OCO2` [Guineensine] was greater than 130 µM; that for `CC(C)CNC(=O)/C=C/CCCCCC/C=C/c1ccc2c(c1)OCO2` [PIPERCHABAMIDE D] was 83.9 µM.
Same read-out and setting: the figure for `O=C(/C=C/CCCC/C=C/c1ccc2c(c1)OCO2)N1CCCCC1` [Pipernonaline] is 25.7 µM; for `CC(C)CNC(=O)/C=C/CCCC/C=C/c1ccc2c(c1)OCO2` [RETROFRACTAMIDE C] it is greater than 151 µM.

For orientation: IC50 means the midpoint of a concentration-inhibition curve.
